Here are results for three molecules from BindingDB's records for doi:10.1021/acs.jnatprod.0c00251 (University of Halle-Wittenberg, 2020).

Usually EC50 stands for the concentration giving half of the maximal effect.

A short description of data set [1]: Substrate activity at OATP1B3 (unknown origin) expressed in HEK293 cells assessed as cytotoxicity incubated for 48 hrs by sulforhodamine B assay.
A short description of data set [2]: Substrate activity at OATP1B1 (unknown origin) expressed in HEK293 cells assessed as cytotoxicity incubated for 48 hrs by sulforhodamine B assay. A general note: The SRB assay estimates cell density from bound dye.

Numbered stars: 1 amine (or outer) side, 2 acyl side, 3 side chain; on linkers, the order of the positions; unused ones are H or OH. Bridge positions count the residues as written; N and C are the ends. Square brackets hold non-standard residues; d marks the D form. Peptide text beside a SMILES is read from it. * marks the point of attachment. Adda = CO[C@@H](Cc1ccccc1)[C@@H](C)/C=C(C)/C=C/[C@H](N[*:1])[C@H](C)C(=O)[*:2]; dAsp(3S-Me) = C[C@H](C(=O)[*:3])[C@@H](N[*:1])C(=O)[*:2]; d(γGlu) = O=C(O)[C@@H](CCC(=O)[*:2])N[*:1]; NMeDha = C=C(NC)C(=O)O; Propargyl = C#CC*

With `C=C1C(=O)N[C@H](C)C(=O)N[C@@H](Cc2ccc(OCc3cn(-c4cc5ccc(O)cc5oc4=O)nn3)cc2)C(=O)N[C@@H](C(=O)O)[C@H](C)C(=O)N[C@@H](CCCNC(=N)N)C(=O)N[C@@H](/C=C/C(C)=C/[C@H](C)[C@H](Cc2ccccc2)OC)[C@H](C)C(=O)N[C@@H](C(=O)O)CCC(=O)N1C`, the figures for the EC50 in data set [1] and in data set [2] were 1.4 nM and 1.7 nM, respectively.
As for `C#CCOc1ccc(C[C@@H]2NC(=O)[C@@H](C)NC(=O)C(=C)N(C)C(=O)CC[C@H](C(=O)O)NC(=O)[C@@H](C)[C@H](/C=C/C(C)=C/[C@H](C)[C@H](Cc3ccccc3)OC)NC(=O)[C@H](CCCNC(=N)N)NC(=O)[C@@H](C)[C@H](C(=O)O)NC2=O)cc1` (R[Adda][d(γGlu)][NMeDha][dA]Y(Propargyl)[dAsp(3S-Me)]-OH; lactam N-7), the EC50 in data set [1] was 2.4 nM; in data set [2], 1.1 nM.
Taken in the same sequence, the figures for `C=C1C(=O)N[C@H](C)C(=O)N[C@@H](Cc2ccc(O)cc2)C(=O)N[C@@H](C(=O)O)[C@H](C)C(=O)N[C@@H](CCCNC(=N)N)C(=O)N[C@@H](/C=C/C(C)=C/[C@H](C)[C@H](Cc2ccccc2)OC)[C@H](C)C(=O)N[C@@H](C(=O)O)CCC(=O)N1C` (R[Adda][d(γGlu)][NMeDha][dA]Y[dAsp(3S-Me)]-OH; lactam N-7) were 3 nM and 4.5 nM.
